Positions of bridges follow the written chain, without caps; N, C: chain ends. Non-standard residues stand in square brackets, D forms with d. Residues, ends and D or L forms follow the SMILES beside them. Groups on a side chain read outwards from the residue. *: point of attachment. FITC = O=C1OC2(c3ccc(O)cc3Oc3cc(O)ccc32)c2ccc(NC(=S)*)cc21; Propanoyl(3-maleimido) = O=C1C=CC(=O)N1CCC(=O)*; hArg = N=C(N)NCCCC[C@H](N)C(=O)O; Ahx = NCCCCCC(=O)O; Mpa = O=C(O)CCS
Target: T1, GPIIb-IIIa (Homo sapiens, UniProt P05106+P08514)
T1 construct: purchased Innovative Research, Novi, Mich
Assay: Solid phase binding assay: competition of fibrinogen binding to immobilized GPIIb-IIIa
Protocol: Peptide binding to GPIIb-IIIa was measured using a solid phase binding assay in which competition of fibrinogen binding by testing compounds is measured. The assay was performed as follows. Purified GPIIb-IIIa (Innovative Research, Novi, Mich.) was coated onto 96-well Immulon-B plates at […]×2 μg/mL, diluted in Buffer A (20 mM Tris pH 7.5, 0.15 M NaCl, and 1 mM each of MgCl2, CaCl2, and MnCl2). After overnight incubation at 4° C., the plate was blocked for 1 hour at 30° C., with 3.5% BSA in Buffer B (50 mM Tris pH 7.5, 0.1 M NaCl, and 1 mM each of MgCl2, CaCl2, and MnCl2). After washing 3 times with Buffer B, diluted peptide or protein solutions were combined with 3.5 nM biotinylated fibrinogen in 0.1% BSA/Buffer B and added to the wells, incubating at 30° C. for 2 hr. After washing (3 times, Buffer B), 1:4000 streptavidin-horseradish peroxidase (HRP) was added (Pierce Chemical Co., Rockford, Ill.) for 1 hour at 30° C. After a final washing step (3 times, Buffer B), the plate was developed with Ultra TMB (3,3′,5,5′-tetramentylbenzidine) (Pierce Chemical Co., Rockford, Ill.) for 5 minutes, stopping with an equal volume of 2 M sulfuric acid. Plate absorbances were read at 450 nm, and IC50 values determined using a 4-parameter logistic fit.

T1 sequence (P08514 32-887 limits assumed): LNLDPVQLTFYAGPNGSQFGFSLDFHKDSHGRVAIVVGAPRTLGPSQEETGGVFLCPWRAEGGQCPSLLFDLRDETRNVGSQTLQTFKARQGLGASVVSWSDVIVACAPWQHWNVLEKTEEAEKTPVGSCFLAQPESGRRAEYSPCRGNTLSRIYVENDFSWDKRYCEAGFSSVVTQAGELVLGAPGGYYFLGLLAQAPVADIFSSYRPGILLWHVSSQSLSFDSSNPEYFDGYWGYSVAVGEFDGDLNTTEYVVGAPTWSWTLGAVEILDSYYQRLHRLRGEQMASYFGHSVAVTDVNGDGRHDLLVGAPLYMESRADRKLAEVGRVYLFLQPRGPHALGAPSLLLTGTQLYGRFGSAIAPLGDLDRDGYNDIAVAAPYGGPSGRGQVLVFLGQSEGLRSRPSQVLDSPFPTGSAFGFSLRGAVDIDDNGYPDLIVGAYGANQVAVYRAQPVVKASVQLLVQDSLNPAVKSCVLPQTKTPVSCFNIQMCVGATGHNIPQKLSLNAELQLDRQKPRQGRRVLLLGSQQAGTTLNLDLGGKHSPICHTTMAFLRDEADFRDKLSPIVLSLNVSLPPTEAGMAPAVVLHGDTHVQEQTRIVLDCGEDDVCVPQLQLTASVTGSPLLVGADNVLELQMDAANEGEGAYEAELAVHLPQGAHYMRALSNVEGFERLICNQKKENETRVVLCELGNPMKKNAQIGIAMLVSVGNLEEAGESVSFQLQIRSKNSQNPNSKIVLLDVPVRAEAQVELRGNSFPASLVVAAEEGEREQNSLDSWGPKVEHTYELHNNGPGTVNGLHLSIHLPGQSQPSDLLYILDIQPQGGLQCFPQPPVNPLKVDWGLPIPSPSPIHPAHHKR
T1 sequence (P05106 27-788): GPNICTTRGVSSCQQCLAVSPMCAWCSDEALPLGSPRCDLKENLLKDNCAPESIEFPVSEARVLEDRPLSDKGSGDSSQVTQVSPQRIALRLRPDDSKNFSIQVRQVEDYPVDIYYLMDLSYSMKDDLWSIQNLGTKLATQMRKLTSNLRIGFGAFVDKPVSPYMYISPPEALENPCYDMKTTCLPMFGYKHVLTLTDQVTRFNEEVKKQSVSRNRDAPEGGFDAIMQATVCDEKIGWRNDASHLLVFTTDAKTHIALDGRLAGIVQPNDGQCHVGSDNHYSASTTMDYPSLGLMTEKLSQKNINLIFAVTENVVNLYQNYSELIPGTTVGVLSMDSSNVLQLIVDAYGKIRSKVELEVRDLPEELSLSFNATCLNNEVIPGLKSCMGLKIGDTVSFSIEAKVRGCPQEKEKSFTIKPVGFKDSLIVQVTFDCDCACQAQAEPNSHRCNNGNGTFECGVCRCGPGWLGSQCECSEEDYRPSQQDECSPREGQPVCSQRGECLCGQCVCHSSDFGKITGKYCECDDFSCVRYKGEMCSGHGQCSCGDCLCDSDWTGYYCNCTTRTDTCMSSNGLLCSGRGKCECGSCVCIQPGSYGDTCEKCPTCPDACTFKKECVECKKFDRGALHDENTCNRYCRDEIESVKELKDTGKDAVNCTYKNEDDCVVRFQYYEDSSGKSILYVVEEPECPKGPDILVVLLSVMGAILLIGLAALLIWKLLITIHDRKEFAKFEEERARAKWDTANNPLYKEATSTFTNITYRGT

N=C(N)NCCCC[C@@H]1NC(=O)CCSSC[C@@H](C(=O)N[C@@H](CCCCNC(=O)CCCCCNC(=O)CCN2C(=O)C=CC2=O)C(N)=O)NC(=O)[C@@H]2CCCN2C(=O)[C@H](Cc2c[nH]c3ccccc23)NC(=O)[C@H](CC(=O)O)NC(=O)CNC1=O [BHRF-1] ([Mpa][hArg]GDWPCK([Ahx-Propanoyl(3-maleimido)])-NH2; disulfide 1-7)
Blocking of fibrinogen binding to immobilized GPIIb-IIIa, in words: potently blocked

N=C(N)NCCCC[C@@H]1NC(=O)CCSSC[C@@H](C(=O)N[C@@H](CCCCNC(=O)CCCCCNC(=O)CCN2C(=O)C=CC2=O)C(=O)N[C@@H](CCCCNC(=S)Nc2ccc3c(c2)C(=O)OC32c3ccc(O)cc3Oc3cc(O)ccc32)C(N)=O)NC(=O)[C@@H]2CCCN2C(=O)[C@H](Cc2c[nH]c3ccccc23)NC(=O)[C@H](CC(=O)O)NC(=O)CNC1=O [BHRF-3] ([Mpa][hArg]GDWPCK([Ahx-Propanoyl(3-maleimido)])K(FITC)-NH2; disulfide 1-7)
Blocking of fibrinogen binding to immobilized GPIIb-IIIa, in words: potently blocked

N=C(N)NCCCC[C@@H]1NC(=O)CCSSC[C@@H](C(N)=O)NC(=O)[C@@H]2CCCN2C(=O)[C@H](Cc2c[nH]c3ccccc23)NC(=O)[C@H](CC(=O)O)NC(=O)CNC1=O [Integrelin, reference compound] ([Mpa][hArg]GDWPC-NH2; disulfide 1-7)
IC50 (3.5 nM biotinylated fibrinogen, mean +/- spread, N in separate column or in text, read-out: IC50, inhibition of fibrinogen binding to immobilized GPIIb/IIIa): 1.3 nM
